{"source": "patent US20250186405A1", "about": "“Compound For Use In Treating Narcolepsy” (Alkermes, Inc., priority 2023, published 2025)", "experiment": "Part 5 NT2: plasma pharmacokinetics, single doses", "assay_type": "in vivo, human", "conditions": "for Cmax / AUC(0-t) / Tmax: human, oral; for Cmax / AUC(0-t): geometric mean; for AUC(0-t): read-out: AUC0-24; for Tmax: plasma", "method": "Treatments were administered under fasted state. Dose levels were as follows:\nSubjects were randomized to 1 of 4 sequences.\nBlood samples (up to 5 mL per sample) were collected for PK analysis of Compound A and its metabolite(s). The actual time of sample collection was recorded. The PK samples of the subjects randomized to placebo treatment were not analyzed. Any remaining plasma PK samples were used to explore the presence of any additional metabolites and/or biomarkers.\nPlasma and urine concentrations of Compound A and its metabolite(s) were measured using a validated high-performance liquid chromatography with tandem mass spectrometry.\nThe PK population was used for summaries of plasma Compound A and its metabolite(s) concentrations and for analyses, summaries, and listing of PK parameters. Dose proportionality for Cmax, AUC0-t, and AUC0-∞ was evaluated using a linear model of logarithmically transformed values to assess the slope parameter, and the 95% CI for the slope was estimated. Where a 95% CI of the slope includes 1, it was considered as evidence of dose proportionality for that PK parameter.", "note": "Where two headings read alike, the source gives them in different places."}
{"smiles": "CS(=O)(=O)N[C@H]1CCCN2C(=O)COc3ccccc3C3CCC(CC3)OCC12", "note": "(stereo partly drawn) [Compound A, N-[(4S,4aR,7α,10α)-1,2,3,4,4a,5,7,8,9,10,16,17-dodecahydro-17-oxo-7,10-ethanopyrido[1,2-d][1,7,4]benzodioxaazacyclotridecin-4-yl]methanesulfonamide]", "values": [{"measurement": "fold change in AUC and Cmax for 5-fold change in dose", "setting": "NT2 patients, 5 to 25 mg", "result": "approximately 3 fold"}, {"measurement": "Cmax", "setting": "5 mg, NT2, plasma, n = 8", "result": 13.4, "unit": "ng/mL"}, {"measurement": "AUC(0-t)", "setting": "5 mg, NT2, plasma, n = 8", "result": 78.1, "unit": "ng·h/mL"}, {"measurement": "Cmax", "setting": "12 mg, NT2, plasma, n = 8", "result": 24, "unit": "ng/mL"}, {"measurement": "AUC(0-t)", "setting": "12 mg, NT2, plasma, n = 8", "result": 185, "unit": "ng·h/mL"}, {"measurement": "Cmax", "setting": "25 mg, NT2, plasma, N = 9", "result": 38, "unit": "ng/mL"}, {"measurement": "AUC(0-t)", "setting": "25 mg, NT2, plasma, N = 9", "result": 231, "unit": "ng·h/mL"}, {"measurement": "Tmax", "setting": "5 mg, NT2, plasma, median, n = 8, read-out: Tmax", "result": 1.75, "unit": "h"}, {"measurement": "Tmax", "setting": "12 mg, NT2, plasma, median, n = 8, read-out: Tmax", "result": 2, "unit": "h"}, {"measurement": "Tmax", "setting": "25 mg, NT2, plasma, median, N = 9, read-out: Tmax", "result": 3, "unit": "h"}, {"measurement": "Tmax", "setting": "25 mg, NT2 patients, 5, 12, 25 mg, read-out: median tmax, range across doses", "result": "1.75 to 3", "unit": "h"}]}
